Common to all, as to format: biochemical
One test has as its target JAK1 (Homo sapiens, UniProt P23458). In words: JAK Kinase Assay (JAK1, Caliper EZ Reader, fluoresceinated peptide). The note with it: ATP 76.5 μM; JAK1 10 nM; 120 minutes at room temperature; read-out: JAK1 inhibition. On the procedure: JAK Kinase Assay 384-well plates in the left foot butoxy measured progress. The final assay volume was 25 μL, 250 nL 100× compounds, 10 μL enzyme mix and 15 μL substrate mix (fluoresceinated peptide and ATP) in assay buffer (20 mM HEPES (pH 7.5), 10 mM MgCl2, […], 0.5 mM EGTA and 2 mM DTT) prepared as test compound. By mixing the JAK1 with substrates and test compounds to start the reaction. There action mixture was incubated for 120 minutes at room temperature, then added 30 μL stop buffer for each sample to terminate the reaction with 50 mM EDTA. After termination of the kinase reaction, the proportion of phosphorylated product was determined as a fraction of total peptide substrate using Caliper EZ Reader II. Inhibition data were calculated by comparison with 100% of the reaction mixture without enzyme inhibition and vehicle-only reaction mixture billion % inhibition compared. The final concentration of reagents in the assays is: ATP, 76.5 μM; JAK1 fluorescent peptide (5-FAM-EEPLYWSFPAKKK-CONH2), 3 μM; JAK1, 10 nM, and DMSO, 1%. Dose response curve were generated to determine the concentration required for IC50 of JAK activity.

The target in a further test is JAK2 (Homo sapiens, UniProt O60674). In words: JAK2 Assay (Caliper EZ Reader, fluoresceinated peptide). The note with it: ATP 11.4 μM; JAK2 0.25 nM; 15 minutes at room temperature; read-out: JAK2 inhibition. As for the experimental part: JAK2 Assay 384-well plates in the left foot butoxy measured progress. The final assay volume was 25 μL, 250 nL 100× compounds, 10 μL enzyme mix and 15 μL substrate mix (fluoresceinated peptide and ATP) in assay buffer (50 mM HEPES (pH 7.5), 10 mM MgCl2, 0.01% TritonX-100, 0.01% Brij35, 0.5 mM EGTA and 2 mM DTT) prepared as test compound By mixing the JAK2 with substrates and test compounds to start the reaction. The reaction mixture was incubated for 15 minutes at room temperature, then added 30 μL stop buffer for each sample to terminate the reaction with 50 mM EDTA. After termination of the kinase reaction, the proportion of phosphorylated product was determined as a fraction of total peptide substrate using Caliper EZ Reader 1 Inhibition data were calculated by comparison with 100% of the reaction mixture without enzyme inhibition and vehicle-only reaction mixture billion % inhibition compared. The final concentration of reagents in the assays is: ATP, 11.4 μM; JAK2 fluorescent peptide (5-FAM-EEPLYWSFPAKKK-CONH2), 3 μM; JAK2, 0.25 nM; and DMSO, 1%. Dose response curve were generated to determine the concentration required for IC50 of JAK2 activity.
Chain of JAK2 (O60674 whole entry, species assumed): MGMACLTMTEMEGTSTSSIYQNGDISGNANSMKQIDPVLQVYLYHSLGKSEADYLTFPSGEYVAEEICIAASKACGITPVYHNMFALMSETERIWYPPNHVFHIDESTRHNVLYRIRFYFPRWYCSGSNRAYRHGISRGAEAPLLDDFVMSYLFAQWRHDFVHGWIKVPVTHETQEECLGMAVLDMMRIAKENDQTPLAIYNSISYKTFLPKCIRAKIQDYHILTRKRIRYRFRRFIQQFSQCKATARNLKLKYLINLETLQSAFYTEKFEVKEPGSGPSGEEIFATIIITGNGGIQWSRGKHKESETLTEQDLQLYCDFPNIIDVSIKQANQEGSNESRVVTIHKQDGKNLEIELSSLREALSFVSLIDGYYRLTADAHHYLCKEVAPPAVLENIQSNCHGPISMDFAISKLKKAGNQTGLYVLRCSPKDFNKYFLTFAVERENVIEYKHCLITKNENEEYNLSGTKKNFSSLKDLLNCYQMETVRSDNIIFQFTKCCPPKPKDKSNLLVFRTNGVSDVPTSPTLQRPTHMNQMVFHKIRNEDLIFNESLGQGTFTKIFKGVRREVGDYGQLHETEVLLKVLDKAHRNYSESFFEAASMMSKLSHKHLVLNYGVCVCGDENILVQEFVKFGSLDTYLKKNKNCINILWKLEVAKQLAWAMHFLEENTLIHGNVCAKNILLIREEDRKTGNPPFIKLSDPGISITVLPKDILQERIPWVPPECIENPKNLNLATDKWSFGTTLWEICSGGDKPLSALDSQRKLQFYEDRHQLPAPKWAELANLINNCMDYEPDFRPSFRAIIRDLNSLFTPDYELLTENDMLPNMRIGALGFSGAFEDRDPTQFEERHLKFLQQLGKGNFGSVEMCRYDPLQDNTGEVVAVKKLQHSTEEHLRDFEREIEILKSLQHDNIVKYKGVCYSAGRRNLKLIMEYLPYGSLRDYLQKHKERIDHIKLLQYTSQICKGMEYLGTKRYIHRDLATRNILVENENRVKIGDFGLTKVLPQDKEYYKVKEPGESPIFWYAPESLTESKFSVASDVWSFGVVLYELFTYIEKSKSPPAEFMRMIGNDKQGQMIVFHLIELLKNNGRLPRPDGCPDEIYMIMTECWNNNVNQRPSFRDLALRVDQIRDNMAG

A further test addresses T1, JAK3 (Homo sapiens, UniProt P52333).
T1 sequence (P52333 1-1124): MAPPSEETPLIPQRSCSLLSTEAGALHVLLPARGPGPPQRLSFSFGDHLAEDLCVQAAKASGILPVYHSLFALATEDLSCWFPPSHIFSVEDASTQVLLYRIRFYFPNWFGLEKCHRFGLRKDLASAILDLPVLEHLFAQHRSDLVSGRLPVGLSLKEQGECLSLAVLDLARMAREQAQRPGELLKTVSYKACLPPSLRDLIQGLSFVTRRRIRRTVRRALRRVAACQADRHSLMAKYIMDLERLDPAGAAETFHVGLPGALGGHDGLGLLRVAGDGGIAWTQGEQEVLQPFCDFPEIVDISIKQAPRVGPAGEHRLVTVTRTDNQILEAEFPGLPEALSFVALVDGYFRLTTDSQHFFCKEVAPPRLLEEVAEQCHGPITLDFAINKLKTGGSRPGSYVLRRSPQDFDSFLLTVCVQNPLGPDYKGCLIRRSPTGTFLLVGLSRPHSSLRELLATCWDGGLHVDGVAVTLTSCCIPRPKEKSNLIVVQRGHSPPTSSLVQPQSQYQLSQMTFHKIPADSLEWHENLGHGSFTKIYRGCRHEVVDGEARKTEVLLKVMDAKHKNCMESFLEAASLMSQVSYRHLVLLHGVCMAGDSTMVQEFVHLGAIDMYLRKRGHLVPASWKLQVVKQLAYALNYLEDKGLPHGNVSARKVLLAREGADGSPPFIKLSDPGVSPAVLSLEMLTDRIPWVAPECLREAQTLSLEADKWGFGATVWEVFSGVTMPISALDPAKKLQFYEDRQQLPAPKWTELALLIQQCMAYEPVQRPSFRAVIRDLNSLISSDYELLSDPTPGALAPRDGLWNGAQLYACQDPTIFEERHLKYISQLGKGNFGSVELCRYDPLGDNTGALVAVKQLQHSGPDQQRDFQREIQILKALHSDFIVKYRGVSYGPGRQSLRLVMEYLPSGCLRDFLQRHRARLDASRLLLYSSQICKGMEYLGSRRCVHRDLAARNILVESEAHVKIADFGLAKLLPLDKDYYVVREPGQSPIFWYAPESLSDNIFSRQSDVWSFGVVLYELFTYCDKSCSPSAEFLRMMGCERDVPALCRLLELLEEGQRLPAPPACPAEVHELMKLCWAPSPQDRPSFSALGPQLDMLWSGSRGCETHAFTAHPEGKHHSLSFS
In words: JAK3 Assay (Caliper EZ Reader, fluoresceinated peptide). The following applies: ATP 3.5 μM; JAK3 0.5 nM; 30 minutes at room temperature; read-out: JAK3 inhibition. On the procedure: JAK3 Assay 384-well plates in the left foot butoxy measured progress. The final assay volume was 25 μL, 250 nL 100× compounds, 10 μL enzyme mix and 15 μL substrate mix (fluoresceinated peptide and ATP) in assay buffer (50 mM HEPES (pH 7.5), 10 mM MgCl2, 0.01% TritonX-100, 0.01% Brij35, 0.5 mM EGTA and 2 mM DTT) prepared as test compound. By mixing the JAK3 with substrates and test compounds to start the reaction. The reaction mixture was incubated for 30 minutes at room temperature, then added 30 μL stop buffer for each sample to terminate the reaction with 50 mM EDTA. After termination of the kinase reaction, the proportion of phosphorylated product was determined as a fraction of total peptide substrate using Caliper EZ Reader II. Inhibition data were calculated by comparison with 100% of the reaction mixture without enzyme inhibition and vehicle-only reaction mixture billion % inhibition compared. The final concentration of reagents in the assays is: ATP, 3.5 μM; JAK3 fluorescent peptide (5-FAM-EEPLYWSFPAKKK-CONH2), 3 μM; JAK3, 0.5 nM; and DMSO, 1%. Dose response curve were generated to determine the concentration required for IC50 of JAK3 activity.

Bounds are passed on as bounds.

This note sets out measurements from patent US11365188B2, “JAK inhibitors” (priority 2018, dated 2022).

Chain of JAK1 (P23458 whole entry, species assumed): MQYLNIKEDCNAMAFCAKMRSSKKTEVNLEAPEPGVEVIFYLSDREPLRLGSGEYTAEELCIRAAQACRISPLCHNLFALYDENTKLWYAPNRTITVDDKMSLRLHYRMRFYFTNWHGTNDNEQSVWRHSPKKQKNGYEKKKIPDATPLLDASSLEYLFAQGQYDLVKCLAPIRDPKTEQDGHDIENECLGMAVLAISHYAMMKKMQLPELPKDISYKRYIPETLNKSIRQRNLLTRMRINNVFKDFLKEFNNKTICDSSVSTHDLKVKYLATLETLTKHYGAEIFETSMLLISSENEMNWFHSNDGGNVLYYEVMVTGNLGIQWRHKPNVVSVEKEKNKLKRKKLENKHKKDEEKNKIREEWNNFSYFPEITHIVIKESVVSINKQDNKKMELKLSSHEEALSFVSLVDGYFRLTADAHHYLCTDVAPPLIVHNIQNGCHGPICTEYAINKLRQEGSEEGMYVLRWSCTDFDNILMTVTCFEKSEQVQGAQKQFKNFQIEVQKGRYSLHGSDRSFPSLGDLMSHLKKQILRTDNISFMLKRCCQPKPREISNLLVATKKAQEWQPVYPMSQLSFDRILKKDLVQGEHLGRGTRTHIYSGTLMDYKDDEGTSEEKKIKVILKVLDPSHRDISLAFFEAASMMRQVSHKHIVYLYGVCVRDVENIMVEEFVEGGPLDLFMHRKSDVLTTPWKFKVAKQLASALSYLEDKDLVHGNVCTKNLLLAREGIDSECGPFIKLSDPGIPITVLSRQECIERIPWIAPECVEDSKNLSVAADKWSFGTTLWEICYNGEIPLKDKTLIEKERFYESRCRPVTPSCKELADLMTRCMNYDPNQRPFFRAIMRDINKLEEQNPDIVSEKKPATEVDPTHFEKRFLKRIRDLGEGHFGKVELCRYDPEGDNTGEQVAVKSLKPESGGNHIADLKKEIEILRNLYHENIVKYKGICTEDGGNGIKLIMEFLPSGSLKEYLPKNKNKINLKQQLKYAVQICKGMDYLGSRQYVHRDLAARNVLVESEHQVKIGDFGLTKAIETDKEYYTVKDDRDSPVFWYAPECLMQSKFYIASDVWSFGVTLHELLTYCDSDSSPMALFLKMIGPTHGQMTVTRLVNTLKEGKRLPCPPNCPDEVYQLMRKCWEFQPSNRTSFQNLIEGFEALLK

Consider `CN(c1ncnc2[nH]ccc12)C1CC2(C1)CN(C(=O)CC#N)C2` [Compound 2, 3-(6-(methyl(7H-pyrrolo[2,3-d]pyrimidin-4-yl)amino)-2-azaspiro[3.3]heptan-2-yl)-3-oxopropanenitrile], for which the IC50 on JAK1 fell in the range of 100 to 1000 nM; on JAK2, 100 to 1000 nM; on JAK3, 1000 to 10000 nM.

On to `CN(c1ncnc2[nH]ccc12)C1CC2(C1)CN(C(=O)CO)C2` [Compound 3, 2-hydroxy-1-(6-(methyl(7H-pyrrolo[2,3-d]pyrimidin-4-yl)amino)-2-azaspiro[3.3]heptan-2-yl)ethanone], for which the figures for the IC50 at JAK1, on JAK2 and at JAK3 were 100 to 1000 nM, 100 to 1000 nM and 1000 to 10000 nM, respectively.

With `CC(=O)N1CC2(CC(N(C)c3ncnc4[nH]ccc34)C2)C1` [Compound 4, 1-(6-(methyl(7H-pyrrolo[2,3-d]pyrimidin-4-yl)amino)-2-azaspiro[3.3]heptan-2-yl)ethanone], the values for the IC50 on JAK1, at JAK2 and on JAK3 were 100 to 1000 nM, 100 to 1000 nM and not below 10000 nM, respectively.

In the case of `CCC(=O)N1CC2(CC(N(C)c3ncnc4[nH]ccc34)C2)C1` [Compound 5, 1-(6-(methyl(7H-pyrrolo[2,3-d]pyrimidin-4-yl)amino)-2-azaspiro[3.3]heptan-2-yl)propan-1-one], the figures for the IC50 at JAK1, at JAK2 and on JAK3 were 100 to 1000 nM, 100 to 1000 nM and 1000 to 10000 nM, respectively.

As for `CCS(=O)(=O)N1CC2(CC(N(C)c3ncnc4[nH]ccc34)C2)C1` [Compound 6, N-(2-(ethylsulfonyl)-2-azaspiro[3.3]heptan-6-yl)-N-methyl-7H-pyrrolo[2,3-d]pyrimidin-4-amine], the IC50 on JAK1 was 100 to 1000 nM; on JAK2 it was 100 to 1000 nM; at JAK3, not below 10000 nM.

Consider `COC(=O)N1CC2(CC(N(C)c3ncnc4[nH]ccc34)C2)C1` [Compound 7, methyl 6-(methyl(7H-pyrrolo[2,3-d]pyrimidin-4-yl)amino)-2-azaspiro[3.3]heptan-2-carboxylate], for which the IC50 lay in the range of 100 to 1000 nM at JAK1, 1000 to 10000 nM at JAK2 and 1000 to 10000 nM on JAK3.

Consider `CCOC(=O)N1CC2(CC(N(C)c3ncnc4[nH]ccc34)C2)C1` [Compound 8, ethyl 6-(methyl(7H-pyrrolo[2,3-d]pyrimidin-4-yl)amino)-2-azaspiro[3.3]heptane-2-carboxylate], for which the IC50 on JAK1 fell in the range of 100 to 1000 nM; at JAK2, 1000 to 10000 nM; on JAK3, 1000 to 10000 nM.

`CN(c1ncnc2[nH]ccc12)C1CC2(C1)CN(C(=O)c1cccnc1)C2` [Compound 9, (6-(methyl(7H-pyrrolo[2,3-d]pyrimidin-4-yl)amino)-2-azaspiro[3.3]heptan-2-yl)(pyridin-3-yl)methanone]: the IC50 at JAK1 was in the range of 10 to 100 nM; on JAK2, 100 to 1000 nM; at JAK3, 1000 to 10000 nM.

Take `CN(c1ncnc2[nH]ccc12)C1CC2(C1)CN(C(=O)CCC#N)C2` [Compound 10, 4-(6-(methyl(7H-pyrrolo[2,3-d]pyrimidin-4-yl)amino)-2-azaspiro[3.3]heptan-2-yl)-4-oxobutanenitrile]: the IC50 at JAK1 was in the range of 10 to 100 nM; on JAK2, 100 to 1000 nM; at JAK3, 1000 to 10000 nM.

On to `CN(c1ncnc2[nH]ccc12)C1CC2(C1)CN(C(=O)c1cccc(C#N)c1)C2` [Compound 11, 3-(6-(methyl(7H-pyrrolo[2,3-d]pyrimidin-4-yl)amino)-2-azaspiro[3.3]heptane-2-carbonyl)benzonitrile], for which the IC50 at JAK1 was in the range of 10 to 100 nM; at JAK2 it was 100 to 1000 nM; at JAK3, 1000 to 10000 nM.

With `CN(c1ncnc2[nH]ccc12)C1CC2(C1)CN(C(=O)C1CCC(=O)CC1)C2` [Compound 12, 4-(6-(methyl(7H-pyrrolo[2,3-d]pyrimidin-4-yl)amino)-2-azaspiro[3.3]heptane-2-carbonyl)cyclohexanone], the figures for the IC50 at JAK1, at JAK2 and on JAK3 were 10 to 100 nM, 100 to 1000 nM and 1000 to 10000 nM, respectively.

With `CN(c1ncnc2[nH]ccc12)C1CC2(C1)CN(C(=O)c1cccc(C(F)(F)F)c1)C2` [Compound 13, (6-(methyl(7H-pyrrolo[2,3-d]pyrimidin-4-yl)amino)-2-azasprio[3.3]heptan-2-yl)(3-(trifluoromethyl)phenyl)methanone], the IC50 at JAK1 fell in the range of 100 to 1000 nM; on JAK2 it was 1000 to 10000 nM; at JAK3, 1000 to 10000 nM.

`CN(c1ncnc2[nH]ccc12)C1CC2(C1)CN(C(=O)Cc1ccc(C#N)cc1)C2` [Compound 15, 4-(2-(6-(methyl(7H-pyrrolo[2,3-d]pyrimidin-4-yl)amino)-2-azaspiro[3.3]heptan-2-yl)-2-oxoethyl)benzonitrile]: the IC50 lay in the range of 100 to 1000 nM on JAK1, 1000 to 10000 nM on JAK2 and 1000 to 10000 nM on JAK3.

Take `CN(c1ncnc2[nH]ccc12)C1CC2(C1)CN(C(=O)CCS(C)(=O)=O)C2` [Compound 16, 1-(6-(methyl(7H-pyrrolo[2,3-d]pyrimidin-4-yl)amino)-2-azaspiro[3.3]heptan-2-yl)-3-(methylsulfonyl)propan-1-one]: the figures for the IC50 at JAK1, on JAK2 and at JAK3 were 100 to 1000 nM, 1000 to 10000 nM and 1000 to 10000 nM, respectively.

Take `CN(c1ncnc2[nH]ccc12)C1CC2(C1)CN(C(=O)c1cccc(OC(F)(F)F)c1)C2` [Compound 17, (6-(methyl(7H-pyrrolo[2,3-d]pyrimidin-4-yl)amino)-2-azaspiro[3.3]heptan-2-yl)(3-(trifluoromethoxy)phenyl)methanone]: the IC50 on JAK1 was 100 to 1000 nM; at JAK2, 1000 to 10000 nM; on JAK3 it was not below 10000 nM.

As to `CN(c1ncnc2[nH]ccc12)C1CC2(C1)CN(C(=O)c1cnccn1)C2` [Compound 18, (6-(methyl(7H-pyrrolo[2,3-d]pyrimidin-4-yl)amino)-2-azaspiro[3.3]heptan-2-yl)(pyrazin-2-yl)methanone], the IC50 at JAK1 is 100 to 1000 nM; on JAK2 it was 1000 to 10000 nM; at JAK3, not below 10000 nM.
